# Source: patent US10001483B2, “Methods for the treatment of Kaposi's sarcoma or KSHV-induced lymphoma using immunomodulatory compounds, and uses of biomarkers” (Celgene Corporation, priority 2015, dated 2018)
# Entries after “also recorded” stand apart in the source; their conditions may differ. Marks after values point to notes of the source that are not given here.
# Key:
# [1] = Pharmacokinetic studies: plasma concentrations of pomalidomide in KS patients (HPLC with fluorescence detection); type: in vivo, human
# Experimental: A non-compartmental analysis was used to calculate plasma pharmacokinetic parameters (Pharsight Corp, Mountain View, Calif.). The maximum plasma concentration (CMAX) and time to CMAX (TMAX) were recorded as observed values; the area under the plasma concentration vs time curve (AUC) was calculated using the log-linear trapezoidal method. For day 1 of cycle 1 (C1D1), the AUC extrapolated to infinity (AUCINF) was used, unless the percent extrapolated exceeded 25%, in which case AUCLAST (to the last quantifiable time point) was used. The steady-state exposure on C1D15 was calculated using AUCLAST.
# Pharmacokinetic Studies were performed pre-dose on cycle 1 day 1 and day 15. Across all analyzed doses: TMAX=2.71±1.73 hrs, T1/2=7.10±2.48 hours, and CMAX=61.21±29.30 ng/mL. […] Comparing HIV infected with non-infected subjects, for CMAX at C1D1 p=0.45, at C1D15 p=0.80 at C1D15 and comparing changes from baseline p=0.91; for AUCLAST at C1D1, p=0.63; at C1D15 p=0.97 and comparing changes from baseline p=0.91.
# [2] = Safety and tolerability of pomalidomide in KS patients; type: in vivo, human
# Experimental: (§1) Aspirin at 81 mg daily was administered as thromboprophylaxis. Assessments were performed every 4 weeks for lymphocyte numbers, Kaposi sarcoma associated herpesvirus (KSHV/HHV8) viral load (VL) and HIV VL and at 8 weeks for T cell subsets and activation by immunophenotyping of peripheral blood mononuclear cells (PBMC). KSHV VL in PBMC and HIV VL in plasma were assayed by quantitative PCR; an ultrasensitive single copy assay was used for HIV VL. Changes from baseline were evaluated using the Wilcoxon signed rank test with P<0.005 considered significant given multiple comparisons. Differences in changes between the HIV infected and uninfected groups were evaluated using the Wilcoxon rank sum test. Median time of the patients on therapy 7 cycles (range 2-12).
# Subsequent cycles commenced on day 29. In certain cases cycles were commenced when ANC was ≥1000 cells/mm3, hemoglobin≥10 g/dL, platelets≥50,000 cells/mm3 and otherwise held until these thresholds were met. […] HIV-infected patients continued baseline ART without adjustment. Prophylaxis for opportunistic infections including Pneumocystis jiroveci was administered following current guidelines.
# [3] = system: lymphocyte subsets; assay: Immunologic correlatives: lymphocyte numbers and T cell subsets/activation by immunophenotyping of PBMC; type: in vivo, human; conditions: for CD4 and CD8 counts: week 4 and week 8 of therapy
# Experimental: as §1
# (§2) Laboratory Assays: Lymphocyte subsets were assessed by fluorescent-activated cell sorting using the BlueOcean platform (Beckman Coulter, Carlsbad, Calif.). Plasma HIV-1 […] was evaluated using an ultrasensitive assay whose sensitivity was 1 viral copy per plasma volume. Briefly, a triplex PCR was used using a modification of a previously reported assay with three primers: one spanning the start codon of gag, one in the gag coding region, and one internal control. Samples were tested from 6 mL plasma aliquots, with 12 replicants per sample. KSHV VL in peripheral blood mononuclear cells (PBMC) was assessed by quantitative real-time PCR.
# (§3) Changes in immunologic and virologic parameters were evaluated by a Wilcoxon signed rank test. Exact Wilcoxon rank sum tests were used to compare pharmacokinetic parameters at each time point and differences from baseline. All p-values are two-tailed and reported without adjustment for multiple comparisons. HRQL was analyzed using a using a mixed model repeated measures analysis for FAHI and the marginal homogeneity test for KS-specific questions
# [4] = system: p21; assay: Western blot of p21 in PEL cell lines; type: cell-based; conditions: 10 ii M for 72 hours; FIGS. 6A-6B
# Experimental: Cell Culture: The PEL lines JSC-1 (John Hopkins University, Baltimore, Md.), dually infected with Epstein-Barr virus (EBV) and HHV-8, and BC-3 (ATCC, Rockville, Md.) and BCBL-1(National Institute of Health AIDS Research and Reagent Program, Rockville, Md.), harboring KSHV only, and CA-46, an uninfected cancerous B-cell line, were grown in RPMI 1640 medium (Invitrogen, Carlsbad, Calif.) supplemented with 15% fetal-bovine serum (FBS) (Thermo Scientific, Rockford, Ill.) and Pen/Strep glutamine at 37° C. with 5% CO2.
# Western Blotting: At the end of an incubation period, cells were lysed and nuclear/cytoplasmic extracts were prepared using the NE-PER nuclear extraction kit (Pierce). Samples were subjected to SDS-PAGE (4 to 12% NuPAGE Tris-Bis) (Invitrogen) and transferred to nitrocellulose. The membrane was blocked with 5% w/v nonfat dry milk in 1×TBST (10 mM Tris-Hcl, […], 150 mM NaCl, and 0.05% Tween 20) overnight at 4° C. Blots were incubated with indicated antibodies such as anti-IRF-7 (Santa Cruz), anti-IRF-4 (Cell Signaling), anti-p21 (Cell Signaling), anti-NF-κB p65 (Cell Signaling), anti-NF-κB phospho-p65 (Cell Signaling), IFN-γRa (Cell Signaling), or anti-CRBN (Sigma-Aldrich), and subjected to the appropriate secondary antibody conjugated to alkaline phosphatase (Promega). Bands were visualized with Western Blue stabilized substrate (Promega). […]
# [5] = system: Kaposi sarcoma associated herpesvirus (KSHV/HHV8); assay: KSHV viral load in PBMC by quantitative real-time PCR; type: in vivo
# Experimental: as §1, §2, §3
# [6] = human, po, plasma, across all analyzed doses, cycle 1 day 1 and day 15, 5 mg orally
# [7] = 5 mg per day for 21 days of 28 day cycles
smiles,measurement,setting,value
"Nc1cccc2c1C(=O)N(C1CCC(=O)NC1=O)C2=O (stereo not shown) [pomalidomide, 4-amino-2-(2,6-dioxopiperidin-3-yl)isoindoline-1,3-dione]",accumulation,[1]; from day 1 to day 15,No evidence of accumulation
same,differences in pharmacokinetics by ART regimen,"[1]; human, in vivo",No significant differences
same,differences in pharmacokinetics by HIV status,"[1]; human, in vivo",No significant differences
same,Tmax,[1]; [6],2.71 ± 1.73 h
same,half-life,[1]; [6],7.1 ± 2.48 h
same,Cmax,"[1]; plasma, across all analyzed doses, cycle 1 day 1 and day 15, 5 mg orally",0.06121 ± 0.0293 µg/mL
same,"adverse events, severity",[2]; [7],"generally mild, self limited, or reversible following therapy"
same,dose limiting events,[2]; [7],No dose limiting events
same,tolerability,[2]; both cohorts,well tolerated
same,cessation of therapy for adverse effect,[2]; exacerbation of pre-existing anxiety,One subject ceased therapy for adverse effect
same,common adverse events,"[2]; generally mild and self-limited, or resolved following cessation of therapy","neutropenia, constipation, anemia not requiring transfusion, fatigue, and rash"
same,"unplanned hospitalizations, febrile neutropenia, thromboembolic events",[2]; with aspirin 81 mg daily thromboprophylaxis,"No unplanned hospitalizations, no febrile neutropenia, and no thromboembolic events"
same,CD19 B-cells,[3]; during therapy,decline; also recorded: reversible decrease
same,NK cells,[3]; during therapy,no significant change
same,Ki67 or PD-1 expression in CD4 or CD8 cells,[3]; in vivo,no significant changes
same,difference between HIV infected and uninfected patient groups in observed effects (cell number and phenotype),[3]; in vivo,no significant difference
same,"CD3 (cells/μL) Change to End Therapy (Med, range)",[3]; median change from baseline,+11 cells/μL
same,"CD3 (cells/μL) Change to Week 8 (Med, range)",[3]; median change from baseline,+190 cells/μL
same,"CD4 (cells/μL) Change to End Therapy (Med, range)",[3]; median change from baseline,−46 cells/μL
same,"CD4 (cells/μL) Change to Week 8 (Med, range)",[3]; median change from baseline,+40 cells/μL
same,"CD8 (cells/μL) Change to End Therapy (Med, range)",[3]; median change from baseline,104 cells/μL
same,"CD8 (cells/μL) Change to Week 8 (Med, range)",[3]; median change from baseline,+142 cells/μL
same,"CD19 (cells/μL) Change to End Therapy (Med, range)",[3]; median change from baseline,−87 cells/μL
same,"CD19 (cells/μL) Change to Week 8 (Med, range)",[3]; median change from baseline,−70 cells/μL
same,"NK (cells/μL) Change to End Therapy (Med, range)",[3]; median change from baseline,10 cells/μL
same,"NK (cells/μL) Change to Week 8 (Med, range)",[3]; median change from baseline,−6 cells/μL
same,"CD19 (cells/μL) Change to Week 4 (Med, range)",[3]; median change from baseline 141,−35 cells/μL
same,"NK (cells/μL) Change to Week 4 (Med, range)",[3]; median change from baseline 178,+23 cells/μL
same,"CD4 (cells/μL) Change to Week 4 (Med, range)",[3]; median change from baseline 440,+108 cells/μL
same,"CD8 (cells/μL) Change to Week 4 (Med, range)",[3]; median change from baseline 500,+101 cells/μL
same,"CD3 (cells/μL) Change to Week 4 (Med, range)",[3]; median change from baseline 1184,+275 cells/μL
same,"CD4 Subsets 38+ DR+: Absolute Change in % at Week 8 (med, range)","[3]; median, baseline 2.5 %",+2%
same,"CD4 Subsets RO− 27− (E): Absolute Change in % at Week 8 (med, range)","[3]; median, baseline 3.3 %",−1.5%
same,"CD4 Subsets 57+: Absolute Change in % at Week 8 (med, range)","[3]; median, baseline 6.3 %",−1.34%
same,"CD8 Subsets 38+ DR+: Absolute Change in % at Week 8 (med, range)","[3]; median, baseline 8.0 %",+8.5%
same,"CD4 Subsets HLA DR+: Absolute Change in % at Week 8 (med, range)","[3]; median, baseline 8.9 %",+8.3%
same,"CD4 Subsets RO+ 27− (EM): Absolute Change in % at Week 8 (med, range)","[3]; median, baseline 16.7 %",+1.7%
same,"CD8 Subsets RO+ 27+ (CM): Absolute Change in % at Week 8 (med, range)","[3]; median, baseline 17.1 %",+8.1%
same,"CD8 Subsets RO+ 27− (EM): Absolute Change in % at Week 8 (med, range)","[3]; median, baseline 18.4 %",+1.0%
same,"CD8 Subsets HLA DR+: Absolute Change in % at Week 8 (med, range)","[3]; median, baseline 19.6 %",+11.6%
same,"CD8 Subsets RO− 27+ (N): Absolute Change in % at Week 8 (med, range)","[3]; median, baseline 21.0 %",−5.1%
same,"CD8 Subsets 57+: Absolute Change in % at Week 8 (med, range)","[3]; median, baseline 30.8 %",−11.0%
same,"CD8 Subsets RO− 27− (E): Absolute Change in % at Week 8 (med, range)","[3]; median, baseline 31.8 %",−6.1%
same,"CD4 Subsets RO− 27+ (N): Absolute Change in % at Week 8 (med, range)","[3]; median, baseline 32.6 %",−6.6%
same,"CD8 Subsets 38+: Absolute Change in % at Week 8 (med, range)","[3]; median, baseline 33.4 %",+19.9%
same,"CD4 Subsets 38+: Absolute Change in % at Week 8 (med, range)","[3]; median, baseline 34.5 %",+4.3%
same,"CD4 Subsets RO+ 27+ (CM): Absolute Change in % at Week 8 (med, range)","[3]; median, baseline 41.9 %",+6.4%
same,CD4 and CD8 counts,[3],Significant increases
same,CD4 and CD8 counts,[3]; listed as Pomalidomide,significant increases
same,"activation (CD38+, HLADR+ and DR+/38+) of CD4 and CD8 T-cells",[3]; week 8,significant increases
same,senescence (CD57+) of CD4 and CD8 T-cells,[3]; week 8,decreases
same,p21 levels,[4],most effective in up-regulating p21
same,"KSHV VL (copies/PBMC) Change to End Therapy (Med, range)",[5]; median change from baseline,0 copies/PBMC
same,"KSHV VL (copies/PBMC) Change to Week 8 (Med, range)",[5]; median change from baseline,0 copies/PBMC
same,"KSHV VL (copies/PBMC) Change to Week 4 (Med, range)",[5]; median change from baseline 0,0^† copies/PBMC
same,subjects whose KSHV VL became detectable from undetectable,"[5]; week 4, 8 subjects",35%
same,subjects showing an increase in KSHV VL in PBMCs,"[5]; week 4, 10 subjects",45%
same,KSHV VL,"[5]; week 4, not sustained at week 8",transient increase; also recorded: significant increase
